Experimental data: US20180008688A1, “METHOD AND COMPOSITIONS FOR ENHANCING IMMUNOTHERAPEUTIC TREATMENT OF A CANCER” (Augusta University Research Institute, Inc., priority 2016, published 2018)
Entries after “also recorded” stand apart in the source; their conditions may differ. Where two headings read alike, the source gives them in different places. Peptide text beside a SMILES is read from it. * marks the point of attachment. Cbz = O=C(OCc1ccccc1)*

Assays:
T cells = assay: Purified T cells activated with anti-CD3/CD28 with nutlin, IL-12, MG-132; type: cell-based, mouse; conditions: MG-132 in the presence of both nutlin and IL-12
Source text: Regulation of p53 is complex, and it can be targeted by multiple pathways besides MDM2 (Chao C. C. (2015) Clin. Chim. Acta 438: 139-147). If IL-12 is rescuing T cells from nutlin, one possibility is that IL-12 might activate an alternative pathway of p53 degradation, not dependent on MDM2. To test this, purified T cells were activated (without any antigen-presenting cells or other cells) using anti-CD3/CD28 antibodies. T cells were activated in the presence or absence of nutlin with or without addition of recombinant IL-12.
Finally, to test the hypothesis that IL-12 targeted p53 for proteolytic degradation via an alternated pathway, proteasomal function was inhibited using MG-132. T cells were activated using immobilized CD3/CD28 as above. […] CFSE proliferation tracked inversely with p53 levels. […] While MG-132 affects many intracellular pathways besides p53, these findings support the basic hypothesis that IL-12 bypasses nutlin by targeting p53 for degradation via an alternative route.

Ly6c+CD11c^NEG cells = assay: Mouse myeloid-cell maturation co-cultures; type: cell-based; conditions: exposed to signals from activated T cells
Procedure: Mouse myeloid-cell maturation cultures: Maturation co-cultures were performed in V-bottom wells (Nunc 249952 V96), using RPMI-1640 medium with 10% fetal bovine serum, but no added cytokines. The preferred source of myeloid cells was TDLN or spleen from mice bearing B16F10 or E.G7 tumors. Rapid isolation of cells was important for viability, so cells were disaggregated by passing once through a 40 μm mesh, then stained briefly on ice and FACS-sorted into ice-cold medium using low-shear fluidics and a large nozzle (Mo-Flo cell sorter). […] myeloid cells were enriched by sorting for Ly6c^+ that were CD11c^NEG B220^NEG (to exclude dendritic cells and B cells). For some experiments, myeloid cells were sub-fractionated using sort dates based on expression of Gr-1 and CD11b.
Sorted Ly6c+ myeloid cells were added to co-cultures as previously described (Sharma et al., (2013) Immunity 38: 998-1012). As an inflammatory stimulus for differentiation, CD8^+ effector cells (5×10^4) were FACS-sorted from spleens of either OT-I or pmel-1 mice (both performed equivalently), and added to co-cultures along with 100 nM cognate peptide (SIINFEKL (SEQ ID NO: 1) or hgp100). […]

p53 = assay: Tumors in PTEN^Treg-KO mice treated in vivo with pifithrin; parameters: species or system mouse
B16F10 tumors [1] = type: in vivo; conditions: for response of B16 melanoma tumors to chemotherapy alone: single moderate dose
Procedure: In vivo tumor studies: The B16F10 and E.G7 (EL4-OVA) cell lines were obtained from ATCC. B16-OVA (B16F10 transfected with full-length chicken ovalbumin) clone MO4 was according to Falo et al. ((1995) Nat. Med. 1: 649-653). B16F10 cells expressing EGFP protein (B16-GFP cells) were derived using lentiviral transfection. Tumor implantation was performed as described (Sharma et al., (2007) J. Clin. Invest. 117: 2570-2582), using 1×10^5 cells for B16F10 and 1×10^6 cells for other cell lines (large inocula were used to ensure rapid tumor engraftment and immune suppression). […] Tumor volume was calculated from orthogonal diameters using the formula V=L×W^2×π/6. Mice received approved euthanasia when tumors reached a size of 300 mm^2 (product of orthogonal diameters); death was never used a planned endpoint in any study.
(§1) Tumor implantation was performed as described (Sharma et al., (2007) J. Clin. Invest. 117: 2570-2582). VO-OHpic was given at 10 mg/kg/day i.p., in 10% DMSO/PBS. Cyclophosphamide was given at 150 mg/kg i.p×1 dose; and oxaliplatin at 5 mg/kg i.p×1 dose. Nutlin-3a was administered daily at 10 mg/kg/day i.p. For checkpoint blockade, mice received anti-CTLA-4 plus a cocktail of antibodies against the PD-1 pathway. Vaccines and T cell adoptive transfer studies were performed as described (Sharma et al., (2015) Sci. Advances. 1: e1500845).
VO-OHpic/CTX, nutlin-3a, oxaliplatin and immunotherapy regimens: The vanadate compound VO-OHpic (Mak et al., (2010) J. Chem. Biol. 3: 157-163) inhibits PTEN activity, and this drug was used to destabilize PTEN+Tregs during chemotherapy. Like all of the available PTEN-inhibitors, VO-OHpic can also affect other phosphatases (Spinelli et al., (2015) Adv. Biol. Regul. 57: 102-111).
VO-OHpic was given at 10 mg/kg/day i.p., in 10% DMSO/PBS. Cyclophosphamide was given at 150 mg/kg i.p×1 dose. Oxaliplatin was given at 5 mg/kg i.p×1 dose. […] For checkpoint blockade, mice received anti-CTLA-4 (clone 9D9, BioXcell) plus a cocktail of antibodies against the PD-1 pathway: anti-PD-L2, clone TY25 (Yamazaki et al., (2002) J. Immunol. 169: 5538-5545); anti-PD-1, clone J43 (Agata et al., (1996) Int. Immunol. 8: 765-772); and anti-PD-L1, clone MIH7 (Tsushima et al., (2003) Eur. J. Immunol. 33: 2773-2782). A cocktail was used in order to block the PD-1 pathway as completely as possible and thus minimize any peculiarities of a single blocking antibody.

B16F10 tumors [2] = assay: Tumors in knockout hosts treated with VO-OHpic or CTX/VO-OHpic; type: in vivo, mouse; conditions: VO-OHpic alone, LysMcre/p53-KO mice
Source text: (§2) Mice with a nuclear-localizing Cre-recombinase knock-in replacing one copy of the Lyz2 gene (Clausen et al., (1999) Transgenic Res. 8: 265-277) (strain 004781, Jax) were crossed as heterozygotes with homozygous p53^flox/flox mice (Marino et al., (2000) Genes Dev. 14: 994-1004) (strain 008462, Jax).
In vivo tumor studies: The B16F10 and E.G7 (EL4-OVA) cell lines were obtained from ATCC. B16-OVA (B16F10 transfected with full-length chicken ovalbumin) clone MO4 was according to Falo et al. ((1995) Nat. Med. 1: 649-653). B16F10 cells expressing EGFP protein (B16-GFP cells) were derived using lentiviral transfection. Tumor implantation was performed as described (Sharma et al., (2007) J. Clin. Invest. 117: 2570-2582), using 1×10^5 cells for B16F10 and 1×10^6 cells for other cell lines (large inocula were used to ensure rapid tumor engraftment and immune suppression). Tumors were implanted bilaterally in each mouse as a control for reproducible implantation technique; replicate tumor diameters in a single mouse were typically within ±15%. Tumor volume was calculated from orthogonal diameters using the formula V=L×W^2×π/6. Mice received approved euthanasia when tumors reached a size of 300 mm^2 (product of orthogonal diameters); death was never used a planned endpoint in any study.
Tumor implantation was performed as described (Sharma et al., (2007) J. Clin. Invest. 117: 2570-2582). […]

B16F10 tumors [3] = conditions: VO-OHpic combined with chemotherapy; Sharma et al. 2015; cited from earlier work
CD33+ cells = assay: Human myeloid cell cultures matured with recombinant IFNγ; type: cell-based; conditions: cultured in GM-CSF+IL-6, then IFNγ; FIG. 5A
Source text: (Minneapolis, MN) and isolated by centrifugation over Ficoll-Paque PLUS (GE Healthcare), followed by enrichment for myeloid cells using CD33^+ micro-beads (Miltenyi MACs). Alternatively, myelomonocytic cells were enriched by counter-flow elutriation as previously described (Munn et al., (2002) Science 297: 1867-1870; Munn et al., (2004) J. lmmunol. 172: 4100-4110). Immature myeloid cells were then generated by culture for 7 days as previously described (Koehn et al., (2015) Blood 126: 1621-1628; Lechner et al., (2010) J. lmmunol. 185, 2273-2284). Briefly, PBMC were cultured in RPMI-1640 medium with 10% FBS, 1% Pen/Strep, 1% GlutaMax as well as recombinant human GM-CSF (10 ng/ml, R&D Systems)+IL-6 (10 ng/ml, R&D Systems). Culture growth media was refreshed on days 3 and 6; on day 7, cells were washed and returned to culture in medium without GM-CSF/IL-6. Replicate cultures were then treated for 2 days with or without recombinant human IFNγ (30ng/ml, R&D Systems) to induce maturation, and with or without p53 inhibitor pifithrin-α (10 uM, Sigma). After 48 h, cultures were harvested and stained for CD11b, CD33, phospho-p53-Ser15, IRF5 and BDCA3 (CD141).
Human peripheral-blood mononuclear cells were enriched for monocytic cells, then cultured in GM-CSF+IL-6 as described by Koehn et al. ((2015) Blood 126: 1621-1628). […]

[4] = tested on: B16F10, EL4, LLC, Tg(Grm1)Epv, MMTV-PyMT; type: in vivo, mouse; conditions: every tumor tested
Source text: Conversely, the effect of chemotherapy could be fully replaced by adoptive transfer of exogenous tumor-specific CD8^+ T cells (e.g., pmel-1 cells) activated with vaccine.

E.G7 tumors [5] = assay: E.G7/oxaliplatin model in LysMcre/p53-KO hosts with or without nutlin-3a; type: in vivo, mouse; conditions: LysMcre/p53 knockout mice
Source text: To test whether the relevant target of nutlin in tumors was specifically the p53 expression in myeloid dendritic cells, the E.G7/oxaliplatin model in LysMcre/p53-KO hosts was used. If mice lacked the relevant p53 in tumor-associated myeloid cells, then LysMcre/p53-KO mice should lose all anti-tumor effect of nutlin. For these studies, mice received congenically-marked OT-I cells to monitor whether T cells were still rescued by IL-12 in tumors.
as §2, §1

E.G7 tumors [6] = assay: RIP-mOVA mice with E.G7 tumors treated with oxaliplatin with or without nutlin; type: in vivo; conditions: oxaliplatin in the absence of nutlin
Procedure: A classical model of ICD was first tested in which EL4-OVA lymphoma tumors (clone E.G7) are treated with oxaliplatin chemotherapy (Ghiringhelli et al., (2009) Nat. Med. 15: 1170-1178). E.G7 bears the same model antigen as B16-OVA (described with the RIP-mOVA model, above), so it was possible to test the effects of nutlin plus oxaliplatin in the RIP-mOVA model.

[7] = VO-OHpic alone, WT control mice

Compound: CC(C)C[C@@H](C=O)NC(=O)[C@H](CC(C)C)NC(=O)[C@H](CC(C)C)NC(=O)OCc1ccccc1 [MG-132] (Cbz-Leu-Leu-Leu-aldehyde)
- T cell proliferation (T cells): inhibited proliferation
- p53 levels in activated T cells (T cells): progressively increased p53

Compound: pifithrin
- differentiation of Ly6c+ MDSCs into Ly6c+CD103+ dendritic cells (Ly6c+CD11c^NEG cells): inhibited
- emergence of Ly6c+CD103+ dendritic cell subset (p53): selectively prevented the emergence
- immune surveillance of tumors (p53): allowed tumors to escape immune surveillance

Compound: VO-OHpic
- anti-tumor effect (B16F10 tumors [1]; PTEN-inhibitor by itself, large established tumors, FIG. 12): no effect
- Ly6c+CD103+ dendritic cells (B16F10 tumors [1]; [7]): allowed emergence
- tumor growth (B16F10 tumors [1]; [7]): suppressed tumor growth
- enhancement of tumor growth by PTEN-inhibitor (B16F10 tumors [1]; systems of the disclosure): does not enhance the growth of tumors
- tumor growth (B16F10 tumors [2]): not suppressed
- destabilization of PTEN+Tregs in tumors (B16F10 tumors [3]): rapid and essentially complete destabilization

Compound: recombinant IFNγ: recombinant human IFNγ (R&D Systems) used to induce maturation
- maturation of CD33+ cells (CD33+ cells): rapidly matured into activated cells expressing CD83, CD141, XCR1 and Batf3

Compound: Nc1ccn([C@@H]2O[C@H](CO)[C@@H](O)C2(F)F)c(=O)n1 [gemcytabine]
- response of B16 melanoma tumors to chemotherapy alone (B16F10 tumors [1]): highly resistant
- interaction of chemotherapy drug with PTEN-inhibitor [4]: synergy

Compound: O=C1[O][Pt]2([NH][C@@H]3CCCC[C@H]3[NH]2)[O]C1=O [oxaliplatin]
- response to oxaliplatin chemotherapy (E.G7 tumors [5]): unable to respond; also recorded: lost all response to treatment
- anti-tumor effect (E.G7 tumors [6]): transient regression
- autoimmune diabetes (E.G7 tumors [6]): rapidly died from progressive autoimmune diabetes

Compound: O=P1(N(CCCl)CCCl)NCCCO1 (stereo not shown) [cyclophosphamide]
- response of B16 melanoma tumors to chemotherapy alone (B16F10 tumors [1]): highly resistant
- interaction of chemotherapy drug with PTEN-inhibitor [4]: synergy
